The structures appear in SMILES notation.

In one data set the test system is ECA109. Details: method as in doi:10.1016/j.tetlet.2013.06.082. The settings on record: compound isolated from Phyllanthus flexuosus; cited from earlier work.
The next data set relates to Hela cells. Details: method as in doi:10.1016/j.tet.2021.132224. The settings on record: compounds derived from Phyllanthus acidus; cited from earlier work.
The subject of another data set is A549. Details: method as in doi:10.1016/j.tet.2021.132224. The settings on record: compounds derived from Phyllanthus acidus; cited from earlier work.
A further data set concerns HONE. Set-up: method as in doi:10.1016/j.tet.2021.132224. Particulars: compounds derived from Phyllanthus acidus; cited from earlier work.
For data set [1] the following is noted: compound from Liriope muscari and Senecio scandens, versus Vitamin C; cited from earlier work.
The nature of data set [2]: ABTS+ radical scavenging test. Particulars: for Inhibition Rate (%): ABTS^+ inhibition, Concentration 250 μM. It is filed as biochemical. The procedure:
The ABTS^+ radical scavenging test was conducted as reported previously, and was slightly modified. Specifically, the solvent was replaced with DMSO due to the high volatility of 80% methanol. Trolox was used as positive control. The scavenging activities of phenolic compounds 3, 4, and 10–17 were calculated based on the percentage of ABTS^+ radical scavenged using the equation:Inhibition rate (%) = (A blank − A sample)/A blank
IC50 values were calculated according to the Reed and Muench method.

The test system of another data set is five tumor cell lines. Details: method as in PMID 17315965. Particulars: 40 μM; compound from Aspidopterys obcordate; cited from earlier work.
Details of data set [3]: method as in PMID 22158590. Particulars: compound from Cordia sinensis, versus BHA; cited from earlier work.

As to `C=Cc1c(C)c(O)cc2c1CC[C@@H]1C(C)(C)[C@H](O)[C@H](O)C[C@@]21C` [Compound 6, cleistanthol], the “cytotoxic activity against ECA109” value in the data set on ECA109 is “weak cytotoxic activity”. In addition, the “cytotoxic activity against Hela cells” value in the data set on Hela cells is “weaker cytotoxic activity”. In the data set with A549, the “cytotoxic activity against A549” value is “weaker cytotoxic activity”. Besides, the “cytotoxic activity against HONE” value with HONE was “weaker cytotoxic activity”.
`COc1cc([C@@H]2OC[C@H]3[C@@H]2CO[C@H]3c2ccc(O)c(OC)c2)ccc1O` [Compound 13, (-)-pinoresinol]: the antioxidant activities entry in data set [1] is recorded as “comparable to that of Vitamin C”. Also, the “Inhibition Rate (%)” value in data set [2] amounted to 60.12 ± 0.19%. The IC50 worked out at 204 ± 4.7 µM in data set [2] (ABTS^+ radical scavenging) and 204 ± 4.66 µM in data set [2] (Table S1, ABTS+ inhibition).
With `C=Cc1c(C)c(O)cc2c1CC[C@@H]1C(C)(C)[C@H](O)CC[C@@]21C` [Compound 7, spruceanol], in the data set with Hela cells, the “cytotoxic activity against Hela cells” value is “weaker cytotoxic activity”. Further, the “cytotoxic activity against A549” value in the data set on A549 was “weaker cytotoxic activity”. Also, the “cytotoxic activity against HONE” value with HONE is listed as “weaker cytotoxic activity”.
Take `C=Cc1c(C)c(O)cc2c1CC[C@@H]1C(C)(C)[C@H](O)C(=O)C[C@@]21C` [Compound 5, aspidoptoid D]: the “cytotoxic activity against five tumor cell lines” value in the data set on five tumor cell lines is “no significant cytotoxic activity”.
As for `COc1cc(C(O)C(CO)Oc2ccc(CCCOC3OC(CO)C(O)C(O)C3O)cc2OC)ccc1O` [Compound 14, 4,7,9-trihydroxy-3,3′-dimethoxy-8-O-4′-neolignan-9′-O-β-D-glucopyranoside], the “Inhibition Rate (%)” value in data set [2] was 39.02 ± 1.35%. Besides, the IC50 is 362 ± 8.4 µM in data set [2] (ABTS^+ radical scavenging) and 362 ± 8.39 µM in data set [2] (Table S1, ABTS+ inhibition).
In the same order, the values of `Cc1c(C)c2c(c(C)c1O)CCC(C)(C(=O)O)O2` (stereo not drawn) [Trolox, reference compound] are 57.26 ± 1.38%, 176 ± 2.1 µM and 176 ± 2.07 µM.
For the compound `COc1cc(CCCOC(C)=O)cc2c1O[C@@H](c1ccc(O)cc1)[C@@H]2CO` [Compound 3, 3-[(2R,3S)-2-(4-hydroxyphenyl)-3-(hydroxymethyl)-7-methoxy-2,3-dihydro-1-benzofuran-5-yl]propyl acetate], the “Inhibition Rate (%)” value in data set [2] was 31.16 ± 0.38%.
The same measure, in the same setting: the result for `CC(=O)OCCCc1ccc2c(c1)[C@H](CO)[C@@H](c1ccc(O)cc1)O2` [Compound 4, 3-[(2S,3R)-2-(4-hydroxyphenyl)-3-(hydroxymethyl)-2,3-dihydro-1-benzofuran-5-yl] propyl acetate] reads 23.71 ± 0.37%.
Consider `COc1cc([C@H]2OC[C@@H]3[C@H]2CO[C@H]3c2ccc(O)c(OC)c2)ccc1O` [Compound 12, (+) epipinoresinol], for which the “Inhibition Rate (%)” value in data set [2] came out at 49.51 ± 1.60%. For the same compound, the IC50 in data set [2] (ABTS^+ radical scavenging) is 387 ± 8 µM; in data set [2] (Table S1, ABTS+ inhibition), 387 ± 8.03 µM.
With `O=C(O)/C=C/c1ccc(O)c(O)c1` [Compound 15, trans-caffeic acid], in data set [2], the “Inhibition Rate (%)” value stood at 49.40 ± 0.72%. For the same compound, the IC50 in data set [2] (ABTS^+ radical scavenging) came to 232.9 ± 1.9 µM; in data set [2] (Table S1, ABTS+ inhibition), 233 ± 1.92 µM. In addition, in data set [3], the “DPPH radical scavenging activity” value is “better DPPH radical scavenging activity than BHA”.
Take `COc1cc([C@H]2Oc3c(OC)cc(CCCOC(C)=O)cc3[C@@H]2CO)ccc1O` [Compound 10, 3-[(2S,3R)-2-(4-hydroxy-3-methoxyphenyl)-3-(hydroxymethyl)-7-methoxy-2,3-dihydro-1-benzofuran-5-yl]propyl acetate]: in data set [2], the “Inhibition Rate (%)” value was found to be 46.46 ± 0.83%. Moreover, the IC50 was determined as 348 ± 12.2 µM in data set [2] (ABTS^+ radical scavenging) and 348 ± 12.2 µM in data set [2] (Table S1, ABTS+ inhibition).

By IC50 is commonly meant the midpoint of a concentration-inhibition curve.

Values taken from publication PMC11816990, “New Terpenoids and Lignans from Phyllanthus acidus Fruits with Antioxidant Activity” (Foods, 2025).
